The experiment relates to normal human melanocytes. The experiment is described as follows: Melanin content of normal human melanocytes, normalized to proliferation (MTS). The experiment is classed as cell-based. The conditions noted are these: 5 day treatment, normal human melanocytes from neonatal skin. As for the experimental part:
Normal human melanocytes from neonatal skin were used for the assay. For the primary screening, the cells were seeded simultaneously into 96-well plates and 24-well plates appropriately according to the surface area of the wells, and treated with the test compound for 5 days. The addition of the compound to the plates was done using a Robot to ensure accuracy (same amount in each well). At the end of 5 day treatment, the cells in the 96-well plate were treated with MTS solution and the plate was read at 490 nm to determine the effect of the compounds on the growth of the cells. The cells in the 24-well plates were rinsed with PBS, and then lysed with 1N NaOH, and the absorbence of alkali soluble melanin was measured at 405 nm.
The data from the 96-well plate was analyzed to determine the effect of each compound on the proliferation of the cells, and the data from the 24-well plate was used to determine the effect of the compound on the melanin content of the cells. The melanin content was then normalized to the proliferation of the cells.

`C=C(c1ccc(C(=O)O)cc1)c1ccc2c(c1)C(C)(C)CCC2(C)C` [CD No. 2771, 4-[1-(5,6.7,8-tetrahydro-5,5,8,8-tetramethyl-2-naphthyl)ethenyl]benzoic acid]: where the note is “at 2 μM”, the “Maximum Increase in Melanin Content (Normalized)” value (“Maximum Increase … (Normalized)” for short) is recorded as 250% at 2 μM.
For the compound `Cc1cc2c(cc1-c1cccc(C=CC(=O)O)c1)C(C)(C)CCC2(C)C` [CD No. 2915, 3-[3-(3,5,5,8,8-pentamethyl-5.6,7.8-tetrahydro-naphthalen-2-yl)-phenyl]-acrylic acid], where the note is “at 0.1 μM”, the “Maximum Increase … (Normalized)” value was determined as 165% at 0.1 μM.
For the compound `CC(=CC(=O)O)c1cccc(-c2cc3c(cc2C)C(C)(C)CCC3(C)C)c1` [CD No. 3206, 3-[3-(3,5.5,8,8-pentamethyl-5,6,7,8-tetrahydro-naphthalen-2-yl)-phenyl]-but-2-enoic acid], the “Maximum Increase … (Normalized)” value (at 0.5 μM) is on record as 198% at 0.5 μM.

These data come from patent US20030113281A1, “Assay for identification of compounds that promote melanin production and retinoid-like compounds identified by said assay” (Galderma Research & Development, S.N.C., priority 1998, published 2003).
